# Experiments:
# Conditions in all cases: 4 days
# PL-21 [1] = test: area under dose-response curve (cell viability) (AUC (arbitrary, % viability x log concentration)); higher = less sensitive (more viable)
# Method in brief: (§1)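 The value given is the area under a fitted sigmoid dose-response curve. That sigmoid had four parameters and was fitted to duplicate-averaged data from fourteen leukemia cell lines grown on extracellular-matrix-coated 384-well plates. One day after plating, drugs were robotically dosed in duplicate at eight concentrations spanning 4–5 logs between 10^–12 and 10^–4 M, chosen per drug, and viability was read with CellTiter-Glo 4 days later.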
# THP-1 [2] = test: as above
# Method in brief: as §1
# HL60 [3] = test: as above
# Method in brief: as §1
# MV4.11 [4] = test: as above
# Method in brief: as §1
# MOLM/13 [5] = test: as above
# Method in brief: as §1
# KASUMI1 [6] = test: as above
# Method in brief: as §1
# OCI-AML2 = test: IC50 (cell viability) (log10 M)
# Method in brief: (§2)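 Listed values are the IC50, taken from fitted curves. Each is the log10 M concentration at which a four-parameter curve crosses 50% viability; where that point is not reached, the highest concentration tested is given. Fourteen leukemia cell lines on extracellular-matrix-coated 384-well plates were exposed in duplicate to eight drug concentrations within 10^–12–10^–4 M, and viability was read with CellTiter-Glo after 4 days.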
# MOLM/16 = test: IC50 (cell viability) (log10 M)
# Method in brief: as §2
# PL-21 [7] = test: IC50 (cell viability) (log10 M)
# Method in brief: as §2
# THP-1 [8] = test: IC50 (cell viability) (log10 M)
# Method in brief: as §2
# HL60 [9] = test: IC50 (cell viability) (log10 M)
# Method in brief: as §2
# NB4 = test: IC50 (cell viability) (log10 M)
# Method in brief: as §2
# OCI-AML3 = test: IC50 (cell viability) (log10 M)
# Method in brief: as §2
# MV4.11 [10] = test: IC50 (cell viability) (log10 M)
# Method in brief: as §2
# MOLM/13 [11] = test: IC50 (cell viability) (log10 M)
# Method in brief: as §2
# KASUMI1 [12] = test: IC50 (cell viability) (log10 M)
# Method in brief: as §2
# U937 = test: IC50 (cell viability) (log10 M)
# Method in brief: as §2
# KG1 = test: IC50 (cell viability) (log10 M)
# Method in brief: as §2
# SKM1 = test: IC50 (cell viability) (log10 M)
# Method in brief: as §2
# EOL-1 = test: IC50 (cell viability) (log10 M)
# Method in brief: as §2
SMILES,area under dose-response curve (PL-21 [1]),area under dose-response curve (THP-1 [2]),area under dose-response curve (HL60 [3]),area under dose-response curve (MV4.11 [4]),area under dose-response curve (MOLM/13 [5]),area under dose-response curve (KASUMI1 [6]),IC50 (log10 M) (OCI-AML2),IC50 (log10 M) (MOLM/16),IC50 (log10 M) (PL-21 [7]),IC50 (log10 M) (THP-1 [8]),IC50 (log10 M) (HL60 [9]),IC50 (log10 M) (NB4),IC50 (log10 M) (OCI-AML3),IC50 (log10 M) (MV4.11 [10]),IC50 (log10 M) (MOLM/13 [11]),IC50 (log10 M) (KASUMI1 [12]),IC50 (log10 M) (U937),IC50 (log10 M) (KG1),IC50 (log10 M) (SKM1),IC50 (log10 M) (EOL-1)
CC(=O)Nc1cccc(-n2c(=O)n(C3CC3)c(=O)c3c(Nc4ccc(I)cc4F)n(C)c(=O)c(C)c32)c1,350,497,287,468,571,371,< -8.34,> -5,-7.81,> -5,< -8.34,-7.5,< -8.34,-6.67,-5.77,-7.17,> -5,-7.87,< -8.34,–
CN(C)CCCn1cc(C2=C(c3c[nH]c4ccccc34)C(=O)NC2=O)c2ccccc21,591,701,710,500,534,647,-5.41,-5.55,-5.04,> -5,> -5,> -5,> -5,-6.66,-5.97,-5.1,> -5,> -5,-5.35,-6.69
CN1CCC(COc2cnc(-c3cccc(Cn4nc(-c5cccc(C#N)c5)ccc4=O)c3)nc2)CC1,635,719,729,688,645,715,> -5,> -5,> -5,> -5,> -5,> -5,> -5,> -5,> -5,> -5,> -5,> -5,> -5,> -5
COc1cc(OC)c(/C=C/S(=O)(=O)Cc2ccc(OC)c(NCC(=O)O)c2)c(OC)c1,349,403,473,363,387,474,-7.47,-7.73,-7.41,-7.33,-6.93,-7.28,-7.72,-7.3,-7.17,-6.87,-7.57,-7,-7.05,-7.51
C[C@@]1(C(=O)Nc2ccc(F)nc2)CCCN1c1nc(Nc2cc(C3CC3)n[nH]2)c2cccn2n1,372,591,373,570,565,405,-6.15,-6.78,-7.16,-5.79,-7.3,-6.61,-5.81,-6.27,-6.18,-6.88,-6.61,-6.35,-6.18,-6.59
Cc1ccc(C(=O)Nc2ccc(CN3CCN(C)CC3)c(C(F)(F)F)c2)cc1C#Cc1cnc2cccnn12,499,583,593,224,266,433,-6.41,-6.82,-6.11,-6.06,-6.17,-6.12,-6.28,-8.82,-8.29,-6.5,-6.07,-7.98,-6.04,< -9.34
Cc1ccccc1-n1c(Cn2cnc3c(N)ncnc32)nc2cccc(C)c2c1=O,614,679,719,650,659,665,> -5,> -5,> -5,> -5,> -5,> -5,> -5,> -5,> -5,> -5,> -5,> -5,> -5,> -5
N#CC[C@H](C1CCCC1)n1cc(-c2ncnc3[nH]ccc23)cn1,609,684,697,649,652,681,> -5,-5.35,> -5,> -5,> -5,> -5,> -5,-5.01,> -5,> -5,-5.57,-5.38,> -5,-5.11
NC(=O)[C@@H](CCC(F)(F)F)N(Cc1ccc(-c2ncon2)cc1F)S(=O)(=O)c1ccc(Cl)cc1,655,690,692,711,693,634,> -5,> -5,> -5,> -5,> -5,> -5,> -5,> -5,> -5,> -5,> -5,> -5,> -5,> -5
CN(C)CC[C@H](CSc1ccccc1)Nc1ccc(S(=O)(=O)NC(=O)c2ccc(N3CCN(Cc4ccccc4-c4ccc(Cl)cc4)CC3)cc2)cc1[N+](=O)[O-] [ABT-737],514,538,457,342,395,403,-6.99,-6.39,-6,-6.33,-6.72,> -6,> -6,-7.76,-7.19,-7.03,-6.16,-6.4,-6.03,-7.89
C[C@]1(c2nc3c(C(N)=O)cccc3[nH]2)CCCN1 [ABT-888],619,690,668,654,638,663,> -5,> -5,> -5,> -5,> -5,> -5,> -5,> -5,> -5,> -5,> -5,> -5,> -5,> -5
CC(C)(C)c1cc(NC(=O)Nc2ccc(-c3cn4c(n3)sc3cc(OCCN5CCOCC5)ccc34)cc2)no1 [AC-220],528,566,550,154,200,408,-6,> -6,–,-6.01,-6.01,> -6,-6.01,< -9.34,-9.03,-6.48,-6.37,> -6,> -6,< -9.34
O=C1NC(=O)[C@@H](c2cn3c4c(cccc24)CCC3)[C@@H]1c1c[nH]c2ccccc12 [ARQ-197],478,478,524,507,468,523,-6.23,-7.26,-6.31,-6.66,-6.37,-6.94,-6.51,-6.32,-6.57,-6.31,-7.23,-6.48,-6.24,-6.74
COc1cc2nccc(Oc3ccc(NC(=O)NC4CC4)c(Cl)c3)c2cc1C(N)=O [E7080],621,713,727,558,531,515,> -5,> -5,> -5,> -5,> -5,> -5,> -5,-5.91,-5.98,-5.24,> -5,–,> -5,-7.74
COc1cc([C@@H]2c3cc4c(cc3[C@@H](O[C@@H]3O[C@@H]5CO[C@@H](C)O[C@H]5[C@H](O)[C@H]3O)[C@H]3COC(=O)[C@H]23)OCO4)cc(OC)c1O [Etoposide],551,540,490,283,328,470,–,-6.42,-5.67,-5.97,-5.78,-7.71,-6.58,-8.2,-7.76,-5.78,-7.62,-5.49,-7.22,-8.33
CN1CC[C@H](c2c(O)cc(O)c3c(=O)cc(-c4ccccc4Cl)oc23)[C@H](O)C1 [Flavopiridol],355,442,474,408,436,476,-7.46,-7.4,-7.47,-7.14,-7.12,-6.96,-7.03,-7.35,-7.27,-7.17,-7.41,–,–,-7.2
CS(=O)(=O)N1CCN(Cc2cc3nc(-c4cccc5[nH]ncc45)nc(N4CCOCC4)c3s2)CC1 [GDC-0941],420,546,465,495,560,402,-5.68,–,-6.77,-5.71,-6.46,-5.49,-6,-6.15,-5.8,-7.01,-6.26,-5.35,-6.37,-6.95
O=NN(CCCl)C(=O)NC1CCCCC1 [Lomustine],604,720,719,622,657,711,–,–,–,–,–,–,–,–,–,–,–,–,–,–
CC(C)C[C@@H](C=O)NC(=O)[C@H](CC(C)C)NC(=O)[C@H](CC(C)C)NC(=O)OCc1ccccc1 [MG132],488,522,487,402,534,484,–,-6.99,-6.3,-6.33,-6.43,-7.22,-7,-7.18,-6.97,-6.3,-6.99,-6.61,-6.97,-7.15
NC1(c2ccc(-c3nc4ccn5c(=O)[nH]nc5c4cc3-c3ccccc3)cc2)CCC1 [MK2206],427,530,611,515,510,449,-5.45,-6.21,-6.09,-5.31,-5.37,-5.23,-5.42,-5.66,-5.62,-5.83,-7.93,–,-5.76,-6.28
O=C1c2c(O)ccc(O)c2C(=O)c2c(NCCNCCO)ccc(NCCNCCO)c21 [Mitoxantrone],332,311,306,153,185,285,-9.21,-8.65,-7.76,-8.04,-7.83,-9.01,-8.3,< -9.48,-9.18,–,-9.09,-7.61,-8.57,< -9.48
COC1=CC(c2cc3ccccc3[nH]2)=N/C1=C\c1[nH]c(C)cc1C [Obatoclax],345,308,338,390,365,321,-7.77,-7.04,-7.66,–,-7.59,-7.77,-7.55,-7.27,-7.47,-8.02,-7.45,-7.72,-6.64,-7.65

# Reference: the supplement of paper PMC5752671
